Assay [1] concerns STHdh^Q7/7 cells expressing Htt96Q-mCherry or Htt20Q-mCherry. The method, then:
Transfections of HEK 293 cells were carried out according to the calcium phosphate method. STHdh^Q7/7 cells are a murine striatal cell line with a stable knock-in of the full-length wild type (WT) human Htt containing a polyglutamine stretch of 7 glutamines (Trettel et al. 2000). […] No cell line used is listed as a commonly misidentified cell line. Cell lines were not authenticated. To reduce any risk of cross-contamination they were grown for a limited number of passages. Transient transfections of NIH 3T3 and STHdh^Q7/7 cells were performed using an MP-100 Microporator (Digital Bio) or ViaFect™ Transfection Reagent (Cat.No. E4981) (Promega), according to the manufacturer's protocols.
Briefly, cells grown for 24 h after transfection on coverslips in 24-well plates were fixed with 3% paraformaldehyde, followed by blocking with 50 mM glycine in PBS and normal goat IgG in PBS/2% BSA. The cells were incubated with primary antibodies for 1 h, washed and incubated for 30 min with secondary antibodies, followed by washes. Nuclei were stained with 4′,6-diamidino-2-phenylindole (Cat.No. F6057) (Sigma). Confocal microscopy was done on a Zeiss laser scanning confocal microscope (LSM 510; Carl Zeiss, Jena, Germany) as described previously. ImageJ was used to quantify fluorescence intensity in images of treated individual cells compared to untreated cells with and without Htt96Q-mCherry aggregates and to calculate Mander's coefficients for colocalization studies.

Assay [2] deals with WT and YAC128 cortical/striatal co-cultures. As to conditions: 24 h. The protocol:
Oxygen consumption rate (OCR) in WT and hemizygous YAC128 cortical/striatal co-cultures and NSCs was measured using Seahorse XFe-24/96 flux analyzers (Seahorse Bioscience, Billerica, MA, USA) following the manufacturer's instructions. […] Pridopidine (0.1, 1 and/or 5 μM) was added, when indicated in the graphs, 24 h before the experiment. The sensor cartridge plate was incubated with immersed sensors in a non-CO2 incubator at 37° C. for ~16 h (overnight). […] The cell medium was aspirated gently to avoid disturbing cell monolayers. […] Accordingly, mitochondrial basal respiration, maximal respiration and ATP production was automatically calculated and recorded by the Seahorse software. Data was normalized for protein levels.

SMILES strings stand for the structures. Like-named read-outs stand apart in the source and are kept apart here.

For the compound `CCCN1CCC(c2cccc(S(C)(=O)=O)c2)CC1` [Pridopidine, 4-[3-(methylsulfonyl)phenyl]-1-propyl-piperidine], the “H2a-GFP accumulation, of the untreated control” value in assay [1] (cells positive for mHtt (Htt96Q-mCherry) aggregates) turned out to be 40%. In addition, the “ER stress (H2a-GFP relative intensity), dose dependence” value in assay [1] (cells with Htt96Q-mCherry aggregates, from 0.03 to 150 μM) was “significantly reduces ER stress in a dose-dependent manner”. The H2a-GFP levels result in assay [1] (cells without aggregates or cells expressing Htt20Q-mCherry) is given as “does not alter H2a-GFP levels”. In addition, the “percent of cells that show visible Htt96Q-mCherry aggregates” value in assay [1] (expression of Htt96Q-mCherry for 24 h) is given as “unchanged”. Also, the maximal respiration entry in assay [2] (HD Y128 corticostriatal neurons, 1 μM, p=0.0061) is “rescues maximal”; in assay [2] (HD Y128 corticostriatal neurons, 5 μM, p=0.002), “rescues maximal”; in assay [2] (WT cells, 1 and 5 μM) it was “increases maximal respiration in both WT and Y128 cells”. Also, the ATP production entry in assay [2] (HD Y128 corticostriatal neurons, 5 μM, p=0.0358) is listed as “rescues”; in assay [2] (WT neurons, 5 μM, p=0.02) it was “enhances”. For the same compound, the basal respiration result in assay [2] (HD Y128 corticostriatal neurons, 1 and 5 μM) is “non-significant trend towards increasing basal respiration”. For the same compound, the mitochondrial basal respiration entry is given as “enhances mitochondrial basal respiration” in assay [2] (WT neurons, 1 μM, p=0.0058) and “enhances mitochondrial basal respiration” in assay [2] (WT neurons, 5 μM, p=0.0016).

Source of the values: patent publication US12685725B2, “Pridopidine for the treatment of mitochondrial-associated diseases and disorders and endoplasmic reticulum (ER) stress” (PRILENIA NEUROTHERAPEUTICS LTD., priority 2019, dated 2026).
